Like-named read-outs stand apart in the source and are kept apart here.
How the values were obtained:
D2R [1] = target: T1, D2R (Homo sapiens, UniProt P14416); assay: D2R functional assay, antagonist mode (cAMP, HEK293 cells); type: cell-based; parameters: expressed in transfected cells
Procedure: The supernatant was aspirated, and the cell pellet was resuspended in stimulation buffer (1 × HBSS, 5 mM HEPES, 0.5 mM IBMX, 0.1% BSA).
The functional properties of compounds were evaluated using the LANCE Ultra cAMP Detection Kit (PerkinElmer). D2 receptors in HEK293 cells are coupled to Gi subtype and decreased cAMP production. […] Each compound was tested in triplicate at eight concentrations (10^−11–10^−4 M).
For quantification of cAMP levels, cells (5 µL) were incubated with 5 µL mixture of compounds (tested ligand and forskolin with 100 nM quinpirole for antagonist binding mode) for 30 min at room temperature in 384-well white opaque microtiter plate (PerkinElmer). After incubation, the reaction was stopped and cells were lysed by the addition of 10 µL working solution (5 µL Eu-cAMP and 5 µL ULight-anti-cAMP). The assay plate was incubated for 1 h at room temperature. Time-resolved fluorescence resonance energy transfer (TR-FRET) signal was detected by an Infinite M1000 Pro (Tecan) using instrument settings from the LANCE Ultra cAMP Detection Kit manual.

D2R [2] = target: T1, D2R; assay: Radioligand binding assay, [3H]-raclopride displacement
HepG2 cell line = assay: Hepatotoxicity assay, HepG2 viability; type: cell-based; conditions: 1 μM, 72 h
Procedure: To estimate the hepatotoxicity of compounds, the hepatoma HepG2 (ATCC® HB-8065TM) cell line was used according to previously described protocols. The CellTiter 96® AQueous Non-Radioactive Cell Proliferation Assay was obtained from Promega (Madison, WI, USA). The compounds were tested in quadruplicate at four concentrations (1–100 µM) for 72 h.

Male CD1 mice [3] = assay: MK-801-induced hyperactivity in mice; type: in vivo; conditions: i.p.; for reversal of MK-801-elevated activity: MK-801 0.35 mg/kg, 15: 0.5, 1, 3 mg/kg, 18: 0.05-3 mg/kg
Procedure: (§1) Animals. Male CD1 mice (Charles River, Germany) weighing 20–25 g at the time of arrival were used in behavioral experiments. Animals were kept under standard laboratory conditions (12:12 light: dark cycle, 22 ± 2 °C) with free access to food and water. Animal welfare has been regularly controlled by a veterinarian and animal welfare committee. After two weeks of acclimatization and handling, the experiments began. Experimental groups consisted of four to 10 animals, depending on the procedure. Drugs were administered intraperitoneally (i.p.) at a volume of 10 mL/kg. Experimental assessments were performed by an observer who was blinded to the treatment conditions. All procedures were conducted in accordance with the European Communities Council Directive of 22 September 2010 (2010/63/EU) and Polish legislation acts concerning animal experimentation and were approved by the II Local Ethics Committee by the Maj Institute of Pharmacology, Polish Academy of Sciences in Krakow (272/2019).
(§2) Drugs. MK-801 was purchased from Tocris Bioscience, Bristol, UK. MK-801 was dissolved in 0.9% NaCl. Compounds 15 and 18 were dissolved in 0.9% NaCl. All compounds were administered intraperitoneally (i.p.) in a volume of 10 mL/kg. Vehicle-treated animals received appropriate solvents. Vehicle was administered to animals in any case when drug administration was omitted (e.g., control or MK-801-treated groups).
The locomotor activity was recorded individually for each animal in locomotor activity cages (according to Rorick-Kehn et al., 2007a,b), with modifications (Wieronska et al., 2012). The mice were placed individually into activity cages (13 × 23 × 15 cm; Opto-M3; Columbus Instruments) for an acclimatization period of 30 min; then they were injected i.p. with compound 15 (0.5, 1, 3 mg/kg) or compound 18 (0.05, 0.1, 0.5, 1, 3 mg/kg) and placed again in the same cages. After 30 min, all of the mice were injected i.p. with MK-801 at 0.35 mg/kg and once again placed in the same cage. From then on, the ambulation scores were counted for 60 min. All of the groups were compared with the MK-801 control group. […]

5-HT2AR = 5-HT2AR (Homo sapiens, UniProt P28223); assay: Radioligand binding assay, [3H]-ketanserin displacement; parameters: host or cells: CHO-K1; membrane preparation; conditions: Table 1
5-HT1AR = target: T2, 5-HT1AR (Homo sapiens, UniProt P08908); assay: Radioligand binding assay, [3H]-8-OH-DPAT displacement
T2 sequence (P08908 1-422): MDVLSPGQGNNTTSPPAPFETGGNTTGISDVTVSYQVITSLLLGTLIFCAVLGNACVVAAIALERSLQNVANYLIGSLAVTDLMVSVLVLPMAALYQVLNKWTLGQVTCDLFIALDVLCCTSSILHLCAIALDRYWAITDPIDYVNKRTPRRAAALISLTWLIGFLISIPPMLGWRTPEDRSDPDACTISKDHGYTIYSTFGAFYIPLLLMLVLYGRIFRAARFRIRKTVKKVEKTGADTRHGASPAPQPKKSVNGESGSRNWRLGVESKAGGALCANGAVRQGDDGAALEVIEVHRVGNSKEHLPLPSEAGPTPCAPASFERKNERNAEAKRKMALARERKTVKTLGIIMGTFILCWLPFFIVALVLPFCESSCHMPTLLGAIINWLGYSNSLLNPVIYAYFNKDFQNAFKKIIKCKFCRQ

Male CD1 mice [4] = assay: Novel object recognition (NOR) test, MK-801-induced memory impairment; type: in vivo; conditions: i.p., MK-801 0.3 mg/kg
Procedure: as §1, §2
This procedure was adapted from Nilsson et al. (2007) and performed as described in a previous paper by Cieslik et al. (2018). Habituation, training, and test trials were performed in a black plastic rectangular arena (40 × 30 × 35 cm) illuminated with a light intensity of 335 lux. During the habituation trial (two consecutive days), each animal was allowed to explore the arena for 10 min. The next day, during the training trial (T1), mice were placed in the arena and presented with two identical objects (red glass cylinder; 6.5 cm in diameter and 4.5 cm high) for 5 min. After 1 h, animals were placed back into the arena for a 5 min test trial, during which one of the previously presented familiar objects was replaced with a novel object (a transparent glass elongated sphere-like object with an orange cap; 5.5 cm in diameter and 8.5 cm high). Time spent exploring (i.e., sniffing or touching) the familiar (Tfamiliar) and novel (Tnovel) objects was measured by a trained observer, and the recognition index [%] was calculated for each mouse [(Tnovel − Tfamiliar)/(Tfamiliar + Tnovel)] × 100. Compounds were administered 30 min before MK-801 (0.3 mg/kg), which was administered 30 min before training trial.

5-HT7R = 5-HT7R (Homo sapiens, UniProt P34969); assay: Radioligand binding assay, [3H]-5-CT displacement
Chain of 5-HT7R (P34969 1-432): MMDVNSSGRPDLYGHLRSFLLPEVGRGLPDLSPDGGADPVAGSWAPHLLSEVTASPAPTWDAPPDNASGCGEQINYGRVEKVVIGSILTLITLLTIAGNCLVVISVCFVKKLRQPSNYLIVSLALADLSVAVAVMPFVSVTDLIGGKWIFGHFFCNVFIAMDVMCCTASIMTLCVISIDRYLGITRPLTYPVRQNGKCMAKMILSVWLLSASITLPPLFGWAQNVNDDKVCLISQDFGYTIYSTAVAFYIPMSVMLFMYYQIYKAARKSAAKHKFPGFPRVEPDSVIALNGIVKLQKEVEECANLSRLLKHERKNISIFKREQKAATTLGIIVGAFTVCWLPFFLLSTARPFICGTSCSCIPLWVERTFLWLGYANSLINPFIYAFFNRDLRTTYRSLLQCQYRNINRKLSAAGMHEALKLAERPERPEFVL

T1 sequence (P14416 whole entry): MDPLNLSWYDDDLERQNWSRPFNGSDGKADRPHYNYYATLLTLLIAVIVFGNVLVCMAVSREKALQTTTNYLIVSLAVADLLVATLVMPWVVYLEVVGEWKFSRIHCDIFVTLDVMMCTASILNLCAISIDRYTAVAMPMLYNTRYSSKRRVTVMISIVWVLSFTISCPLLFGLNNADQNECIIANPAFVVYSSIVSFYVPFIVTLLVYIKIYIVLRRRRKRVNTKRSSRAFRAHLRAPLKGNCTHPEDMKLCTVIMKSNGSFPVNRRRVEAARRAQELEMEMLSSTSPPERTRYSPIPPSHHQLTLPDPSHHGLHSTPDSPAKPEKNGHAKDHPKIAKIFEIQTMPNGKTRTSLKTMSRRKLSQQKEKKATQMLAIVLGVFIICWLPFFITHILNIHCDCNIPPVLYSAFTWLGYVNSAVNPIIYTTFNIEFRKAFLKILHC
Chain of 5-HT2AR (P28223 whole entry): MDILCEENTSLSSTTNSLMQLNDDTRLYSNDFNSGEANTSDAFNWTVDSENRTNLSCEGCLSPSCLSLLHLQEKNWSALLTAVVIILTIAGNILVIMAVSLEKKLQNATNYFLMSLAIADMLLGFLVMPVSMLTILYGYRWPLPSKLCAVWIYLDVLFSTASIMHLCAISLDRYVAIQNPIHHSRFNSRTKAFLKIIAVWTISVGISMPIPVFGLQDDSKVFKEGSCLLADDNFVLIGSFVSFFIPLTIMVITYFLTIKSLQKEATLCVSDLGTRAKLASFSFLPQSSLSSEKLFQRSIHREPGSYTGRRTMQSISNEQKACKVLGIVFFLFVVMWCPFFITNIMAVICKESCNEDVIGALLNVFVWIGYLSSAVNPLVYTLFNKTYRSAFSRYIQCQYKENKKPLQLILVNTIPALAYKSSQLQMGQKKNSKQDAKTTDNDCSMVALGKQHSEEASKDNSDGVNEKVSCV

With `Brc1ccc2c(CNCCc3c[nH]c4ccccc34)c[nH]c2c1` [Compound 15] the Kb (D2R [1]; antagonistic mode, 100 nM quinpirole, read-out: D2 Kb) was 109 nM, the EC50 (D2R [1]; read-out: EC50 (D2 receptor, antagonistic function)) was 109 nM and the Ki (D2R [2]; Ki D2, Figure 8) was 290 nM. For the same compound, the Ki (D2R [2]; pKi D2, Table 1) was 288 nM, the “effect on HepG2 proliferation in words” value (HepG2 cell line) was “a proliferative effect was observed, but it was not statistically significant” and the “exacerbation of MK-801 hyperactivity” value (Male CD1 mice [3]; 3 mg/kg) was “not statistically significant”. The “reversal of MK-801-elevated activity” value (Male CD1 mice [3]) was “did not reverse the locomotor activity elevated by the administration of MK-801”, the Ki (5-HT2AR; read-out: pKi 5-HT2A (converted)) was 4070 nM and the Ki (5-HT1AR; pKi 5-HT1A, Table 1) was 977 nM. For the same compound, the “reversal of memory impairment induced by MK-801 in NOR test” value (“reversal of memory impairment induced” below) (Male CD1 mice [4]; 0.5 mg/kg) was “reversed memory impairment”, the “reversal of memory impairment induced” value (Male CD1 mice [4]; 1 mg/kg) was “reversed memory impairment” and the Ki (5-HT7R) was 4680 nM.
With `Brc1cccc2c(CNCCc3c[nH]c4ccccc34)c[nH]c12` [Compound 18] the Kb (D2R [1]) was 167 nM, the Ki (D2R [2]; Ki D2, Figure 8) was 55 nM and the Ki (D2R [2]; pKi D2, Table 1) was 55 nM. The “effect on HepG2 proliferation in words” value (HepG2 cell line) was “a proliferative effect was observed, but it was not statistically significant”, the “reversal of MK-801-elevated activity” value (Male CD1 mice [3]) was “did not reverse the locomotor activity elevated by the administration of MK-801” and the Ki (5-HT2AR; pKi 5-HT2A) was 3980 nM. For the same compound, the Ki (5-HT1AR) was 302 nM, the “reversal of memory impairment induced” value (Male CD1 mice [4]; 0.1 mg/kg) was “reversed memory impairment” and the “reversal of memory impairment induced” value (Male CD1 mice [4]; 0.5 mg/kg) was “reversed memory impairment”. The “reversal of memory impairment induced” value (Male CD1 mice [4]; 1 mg/kg) was “reversed memory impairment” and the Ki (5-HT7R) was 1320 nM.
